# T1: Olfr78/Gpr132 (Mus musculus, UniProt Q8VBV9+Q9Z282)
# T1 construct: expressed in transfected cells; host or cells: Hana3A cells
# T1 sequence (Q8VBV9 1-320): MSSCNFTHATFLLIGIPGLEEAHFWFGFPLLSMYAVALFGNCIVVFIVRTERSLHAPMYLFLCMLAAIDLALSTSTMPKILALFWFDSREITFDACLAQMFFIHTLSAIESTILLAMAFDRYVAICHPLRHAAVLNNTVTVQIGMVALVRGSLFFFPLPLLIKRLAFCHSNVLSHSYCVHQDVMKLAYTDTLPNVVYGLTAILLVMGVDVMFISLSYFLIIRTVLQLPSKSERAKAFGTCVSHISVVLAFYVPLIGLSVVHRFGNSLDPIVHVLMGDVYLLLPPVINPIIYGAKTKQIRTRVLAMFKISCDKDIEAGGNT
# T1 sequence (Q9Z282 1-382): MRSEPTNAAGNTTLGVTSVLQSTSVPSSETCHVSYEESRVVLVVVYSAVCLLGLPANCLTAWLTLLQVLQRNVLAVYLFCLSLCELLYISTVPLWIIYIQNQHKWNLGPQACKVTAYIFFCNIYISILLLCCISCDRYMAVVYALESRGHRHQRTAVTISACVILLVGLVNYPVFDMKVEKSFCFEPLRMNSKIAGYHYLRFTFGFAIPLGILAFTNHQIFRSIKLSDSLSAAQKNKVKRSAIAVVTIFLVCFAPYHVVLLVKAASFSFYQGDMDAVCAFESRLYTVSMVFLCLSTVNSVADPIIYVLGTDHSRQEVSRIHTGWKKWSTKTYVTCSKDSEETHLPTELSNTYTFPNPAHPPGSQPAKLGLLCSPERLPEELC
# Key:
# Format in all cases: cell-based
# lactate dehydrogenase = assay: Lactate concentration in TCM of mouse tumor cell lines pretreated with oxamic acid; details: pretreatment of mouse tumor cell lines, FIG. 4A
# Experimental: The concentrations of lactate and acetate in TCM of cells cultured at 80% confluency were measured using lactate and acetate colorimetric assay kits (BioVision, Milpitas, CA). Briefly, 50 μL of TCM was mixed with lactate or acetate enzyme mix and the probe according to the manual and reacted for 30 min at room temperature. The concentrations of cytokines in the conditioned medium of macrophages were measured using cytokine ELISA kits (R&D Systems). Briefly, 100 μL of conditioned medium was added to plates precoated with antibodies against IL-4, IL-10, and TGF-β. Samples were reacted with corresponding antibodies conjugated to biotin and then with horseradish peroxidase-labeled streptavidin. Absorbance at 570 nm was measured using a microplate reader. The concentrations of lactate, acetate, and cytokines were calculated from the standard curves.
# To determine, though lactate is known to be important in M2 macrophage polarization, whether lactate is the main factor in TCM responsible for Olfr78-mediated M2 macrophage polarization, the prevent inventors treated WT BMDMs with TCM of mouse tumor cell lines pretreated with oxamic acid (OA), an inhibitor of lactate dehydrogenase that prevents lactate production. […] Up-regulation of M2 markers was attenuated (P<0.05) in WT BMDMs treated with lactate-depleted TCM (TCM+OA). […]
# BMDMs = assay: M1/M2 polarization of mouse BMDMs (flow cytometry, qRT-PCR, cell shape); details: for Olfr78 expression: BMDMs differentiated into M2 or M1 macrophages, FIG. 1B
# Experimental: BMDMs were isolated from tibias and femurs of C57BL6 or Balb/c mice and cultured in DMEM supplemented with 10 ng/mL macrophage colony-stimulating factor (Gibco, Carlsbad, CA) and 10% FBS for 7 d. The culture medium was changed every other day. For M1 polarization, BMDMs were cultured with 20 ng/mL recombinant mouse IFN-γ (R&D Systems) plus 100 ng/mL LPS for 24 to 48 h. For M2 polarization, BMDMs were cultured with 20 ng/mL recombinant mouse IL-4 for 24 to 48 h. For lactate-mediated M2 polarization, BMDMs were treated with 10 mM lactate (Sigma-Aldrich, St. Louis, MO) at 37° C. in a humidified atmosphere containing 5% CO2 for 24 to 48 h.
# (§1) Anti-CD11b, anti-CD3, anti-CD4, anti-CD8, anti-CD86, anti-F4/80, anti-CD206, anti-CD163, and anti-Gr1 antibodies were purchased from BioLegend (San Diego, CA). An anti-Olfr78 antibody was purchased from LSBio (Seattle, WA). Anti-CD206 and anti-CD86 antibody was purchased from Santa Cruz Biotechnology (Dallas, TX). Cells were fixed with 4% paraformaldehyde and then reacted with an untagged primary antibody or a dye-tagged antibody at 4° C. for 30 min in the dark. Cells treated with an untagged primary antibody (anti-Olfr78, anti-CD206, and anti-CD86) were washed and reacted with a dye-tagged secondary antibody. At least 10,000 or more events were analyzed using a flow cytometer (BD Bioscience, San Jose, CA). Data were evaluated using CellQuest Pro software (BD Biosciences). To prepare cell suspensions from tumor tissues, freshly excised tumors were fragmented into several pieces, minced into 2-3 mm^3 pieces, and reacted with collagenase D (Roche, Basel, Switzerland) and DNase (Sigma-Aldrich) at 37° C. for 40 min. The tissue samples were filtered through a 100 μm cell strainer (Falcon, Corning, NY) to collect digested cells. Collected cells were resuspended in phosphate-buffered saline containing FBS and subjected to flow cytometry.
# (§2) Cells were lysed using QIAzol lysis reagent (Qiagen, Hilden, Germany). RNA was isolated from cell lysates using an miRNeasy Mini Kit (Qiagen) and subjected to qRT-PCR. Primers targeting Arg1, IL-10, IL-4, TGF-0, IL-12p40, IFN-γ, and R-actin were obtained from Bioneer Inc. (Daejeon, Korea). cDNA was synthesized using a PrimeScript 1st cDNA Synthesis Kit (Takara, Shiga, Japan). qPCR using SYBR Green (Qiagen) was performed on a real time cycler (Bio-Rad, Hercules, CA). R-Actin was used as an endogenous control. Data used to determine relative expression were analyzed according to the Livak method.
# To examine the involvement of Olfr78 in lactate-induced M2 polarization of macrophages, the present inventors conducted investigation on whether Olfr78 was expressed in BMDMs isolated from Olfr78^+/+ (WT) and Olfr78^−/− mice. […] Next, the present inventors differentiated BMDMs into M1 and M2 macrophages to investigate whether the expression level of Olfr78 was regulated according to macrophage polarization. Lactate, TCM, and IL-4 were used to stimulate M2 polarization, while lipopolysaccharide (LPS) plus interferon (IFN)-γ (L+I) was used to stimulate M1 polarization. […] To investigate the effect of Olfr78 on macrophage polarization, the present inventors measured the protein levels of M2 macrophage markers such as CD206 (FIG. 1C) and the mRNA levels of IL-4, IL-10, and TGF-β(FIGS. 1E-G), as well as M1 macrophage markers such as CD86 (FIG. 1D) and the mRNA levels of IL-12 and IFN-γ (FIGS. 1H and 1I) when WT and Olfr78^−/− BMDMs were differentiated into M1 and M2 macrophages. […] Next, the present inventors restored Olfr78 expression in Olfr78^−/− BMDMs by transfecting them with a Flag-tagged Olfr78 expression vector.
# Olfr78/Gpr132 = target: T1, Olfr78/Gpr132; assay: Luciferase assay in transfected Hana3A cells; details: Hana3A cells cotransfected with Olfr78 and Gpr132 vs Olfr78 or Gpr132 alone, FIG. 6D
# Experimental: Luciferase assays were performed using the Dual-Glo™ Luciferase Assay System (Promega, Madison, WI). Briefly, Mock-, Olfr78−, Gpr132−, or Olfr78/Gpr132 transiently transfected Hana3A cells were stimulated with various concentrations of sodium lactate diluted in CD293 medium at 37° C. for 4 h. The activity of firefly luciferase was normalized against that of Renilla luciferase. Luminescence was measured on a SpectraMax L microplate reader (Molecular Devices, San Jose, CA).
# [1] = test system: THP-1 human immortalized monocytes; assay: M1/M2 polarization of PMA-treated THP-1 human monocytes; details: for M1 markers such as iNOS, CD86, TNF-α, and IL-12B / M2 markers such as Arg-1, CD163, CD206, and IL-10: OR51E2-depleted THP1 cells vs untreated; for M1 markers such as iNOS, CD86, TNF-α, and IL-12B: FIGS. 3D, 3E, 3I-K; for M2 markers such as Arg-1, CD163, CD206, and IL-10: FIGS. 3D-H; for protein and mRNA levels of OR51E2: FIGS. 2B, 2C; for levels of M2 macrophage markers such as Arg1, CD206, CD163, and IL-10: FIGS. 2D-H
# Experimental: as §1, §2
# For coimmunoprecipitation assays, cells were lysed with M-PER Mammalian Protein Extraction Reagent (ThermoFisher Scientific, Waltham, MA). Cell lysates were reacted with 2 μg of an antibody against Olfr78 or Gpr132 at 4° C. overnight and then with 100 μl of protein A-agarose beads (ThermoFisher Scientific) at 4° C. for 4 h with agitation. The beads were boiled, and the eluates were subjected to Western blotting with an antibody against Olfr78 or Gpr132. 40 μg of protein was electrophoresed on a 10% SDS-PAGE gel and transferred to a membrane (MilliPore, Burlington, MA). The membrane was reacted with antibodies against iNOS (Abcam, Cambridge, UK), Arg1 (Abcam), and R-actin (Santa Cruz Biotechnology) at 4° C. overnight followed by secondary antibody at room temperature for 2 h, and then exposed to a chemiluminescence substrate (ThermoFisher Scientific). Signals were visualized using an LAS1000 enhanced chemiluminescence detection system (Fuji Film, Minato, Tokyo).
# To examine the effect of ORs on M2 polarization of human macrophages, THP-1 human immortalized monocytes were treated with phorbol myristate acetate (PMA) and then with L+I, IL-4, TCM, or lactate.
molecule,measurement,setting,value
"NC(=O)C(=O)O [OA, oxamic acid]",lactate in TCM,lactate dehydrogenase,almost completely depleted
CC(=O)O [acetate],M2 polarization,"BMDMs; Olfr78−/− BMDMs, FIGS. 4H-J",did not induce M2 polarization
same,"mRNA levels of M2 markers such as IL-4, IL-10, and TGF-β","BMDMs; WT BMDMs, FIGS. 4H-J",significantly (P<0.001) increased
CC(O)C(=O)[O-].[Na+] (stereo not drawn) [sodium lactate],Relative luciferase activity,Olfr78/Gpr132,significantly higher
lactate,M2 polarization of THP-1 human monocytes,[1]; FIG. 2 legend,induces M2 polarization
same,"M1 markers such as iNOS, CD86, TNF-α, and IL-12B",[1],"did not up-regulate M2 markers such as Arg-1, CD163, CD206, and IL-10 (FIGS. 3D-H) or down-regulate M1 markers"
same,"M2 markers such as Arg-1, CD163, CD206, and IL-10",[1],did not up-regulate
same,iNOS levels,"[1]; THP-1 cells vs untreated, FIGS. 2D, 2E",decreased
same,protein and mRNA levels of OR51E2,[1]; THP-1 cells,significantly (P<0.01) increased
same,"levels of M2 macrophage markers such as Arg1, CD206, CD163, and IL-10",[1]; THP-1 cells,increased
same,"levels of M1 macrophage markers such as CD86, TNF-α, and IL-12B","[1]; THP-1 cells, FIGS. 2I-K",did not affect
same,Olfr78 expression,BMDMs,significantly increased
same,"mRNA levels of IL-4, IL-10, and TGF-β (lactate-induced)","BMDMs; Gpr132-depleted Olfr78−/− BMDMs, FIGS. 6G-I",further reduced
same,"Lactate-induced up-regulation of mRNA levels of M2 cytokines such as IL-4, IL-10, TGF-β, and Arg1","BMDMs; Gpr132-depleted WT BMDMs, FIGS. 6G-J",significantly (P<0.01) reduced
same,M2-specific and M1-specific markers,"BMDMs; Olfr78−/− BMDMs vs untreated, FIGS. 1C-I",did not exhibit up-regulation of M2-specific markers or down-regulation of M1-specific markers
same,protein level of CD206 (M2 marker),"BMDMs; WT BMDMs vs untreated, FIG. 1C",dramatically (P<0.001) higher
same,protein level of CD86 (M1 marker),"BMDMs; WT BMDMs vs untreated, FIG. 1D",significantly lower
same,"mRNA levels of IL-4, IL-10, and TGF-β (M2 markers)","BMDMs; WT BMDMs vs untreated, FIGS. 1E-G",dramatically (P<0.001) higher
same,mRNA levels of IL-12 and IFN-γ (M1 markers),"BMDMs; WT BMDMs vs untreated, FIGS. 1H and 1I",significantly lower
same,"M2 polarization markers, such as CD206, IL-4, IL-10, and TGF-0","BMDMs; WT BMDMs vs untreated, FIGS. 4B-E",significant up-regulation
same,percentage of cells with an elongated shape,"BMDMs; WT BMDMs vs untreated, FIGS. 4F, 4G",increase
"IL-4: recombinant interleukin-4 used to stimulate M2 polarization (protein, UniProt P05112 25-153, looked up) Interleukin-4: HKCDITLQEIIKTLNSLTEQKTLCTELTVTDIFAASKNTTEKETFCRAATVLRQFYSHHEKDTRCLGATAQQFHRHKQLIRFLKRLDRNLWGLAGLNSCPVKEANQSTLENFLERLKTIMREKYSKCSS","M1 markers such as iNOS, CD86, TNF-α, and IL-12B",[1],down-regulated
same,"M2 markers such as Arg-1, CD163, CD206, and IL-10",[1],still up-regulated
same,protein and mRNA levels of OR51E2,[1]; THP-1 cells,significantly (P<0.01) increased
same,"levels of M2 macrophage markers such as Arg1, CD206, CD163, and IL-10",[1]; THP-1 cells,increased
same,Olfr78 expression,BMDMs,significantly increased
same,CD206,"BMDMs; Olfr78−/− BMDMs, FIG. 1C",still up-regulated
same,CD86,"BMDMs; Olfr78−/− BMDMs, FIG. 1D",down-regulated
same,protein level of CD206 (M2 marker),"BMDMs; WT BMDMs vs untreated, FIG. 1C",up-regulated
same,protein level of CD86 (M1 marker),"BMDMs; WT BMDMs vs untreated, FIG. 1D",down-regulated
